Reference: publication PMC12379584, “Characterization of the ligand binding pocket of the virulence regulator Rns, a member of the AraC/XylS family of transcription factors” (mSphere, 2025)

Key:
MBP-Rns [1] = molecular target: MBP-Rns (Escherichia coli, UniProt P16114, H20A); assay: biochemical
MBP-Rns [2] = molecular target: T1, MBP-Rns (Escherichia coli, UniProt P16114); assay: EMSA, inhibition of DNA binding; type: biochemical
T1 construct: full-length codon-optimized Rns with N-terminal MBP solubility tag kept (pMBPRnsOPT2, pMalC2), expressed in E. coli BL21, MBPTrap and heparin columns

MBP-Rns [3] = molecular target: MBP-Rns (Escherichia coli, UniProt P16114, I14F/I17F); assay: biochemical
MBP-Rns [4] = molecular target: MBP-Rns (Escherichia coli, UniProt P16114, R75A); assay: biochemical

SMILES: CCCCCCCCCC(=O)O [decanoic acid]
- IC50 (MBP-Rns [1]): > 10 mM
- IC50 (MBP-Rns [2]): 1.15 mM
- IC50 (MBP-Rns [3]): > 10 mM
- IC50 (MBP-Rns [4]): > 10 mM
